# Assay results from patent publication EP3057949B1, “SECONDARY ALCOHOL QUINOLINYL MODULATORS OF ROR GAMMA T” (Janssen Pharmaceutica NV, priority 2013, dated 2015).
# pIC50: −log10 of the molar value.
# Biological target: T1, full-length human RORγt (Homo sapiens, UniProt P51449)
# T1 construct: expressed in transfected cells; host or cells: HEK293T
# T1 sequence (P51449 1-497 isoform P51449-2): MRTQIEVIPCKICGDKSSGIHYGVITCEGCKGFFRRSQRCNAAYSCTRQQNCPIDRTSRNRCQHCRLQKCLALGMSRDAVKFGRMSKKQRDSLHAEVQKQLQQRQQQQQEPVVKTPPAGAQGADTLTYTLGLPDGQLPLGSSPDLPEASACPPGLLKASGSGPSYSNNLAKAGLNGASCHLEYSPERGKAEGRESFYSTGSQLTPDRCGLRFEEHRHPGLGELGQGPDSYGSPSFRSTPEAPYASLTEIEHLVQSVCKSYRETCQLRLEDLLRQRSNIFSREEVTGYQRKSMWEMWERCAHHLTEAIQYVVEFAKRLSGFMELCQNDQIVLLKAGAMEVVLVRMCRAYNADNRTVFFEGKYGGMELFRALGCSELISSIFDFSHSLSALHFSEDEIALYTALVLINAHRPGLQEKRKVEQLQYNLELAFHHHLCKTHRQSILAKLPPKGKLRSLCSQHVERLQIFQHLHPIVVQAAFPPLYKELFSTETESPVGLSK
# Assay: RORγt (full-length human) Reporter Assay (GAL4 luciferase, HEK293T cells)
# Type: cell-based
# Details: for pIC50: overnight (16 to 20 hours) incubation, read-out: RORγt (FL) Reporter Assay, IC50
# Description: Compounds were assessed for RORgt functional modulation using either the RORgt ligand binding domain (LBD) reporter assay, or the RORgt full-length (FL) reporter assay.
# A reporter assay was used to test functional activity of RORγt modulatory compounds on transcriptional activation driven by full-length human RORγt. Cells used in this assay were transiently co-transfected with three different plasmids, one expressing the GAL4-DNA binding domain (DBD)-RORγt fusion protein under control of a CMV promoter (NH2-Gal4-DBD:RORC-COOH in pCMV-BD, Stratagene #211342), and two reporter plasmids - the firefly luciferase reporter under control of a GAL4 promoter (pFR-Luc 2x GAL4) and Renilla luciferase reporter under control of CMV promoter (pRL-CMV, Promega #E2261). The full-length coding sequence was used for human RORγt, i.e., nucleotides 142-1635 of human RORγt, transcript variant 2, NCBI Accession: NM_001001523.1 (SEQ ID NO:1). HEK293T cells were plated at 35000 per well in 96-well plate in medium of MEM with 8.6% FBS. After 18-22 hours incubation, the transfection was carried out by using a PEI solution with 170.5 ng total DNA/well (50 ng pCMV-BD-ROR plus 20 ng of pFR-Luc reporter and 0.5 ng of pRL-CMV reporter plus 100 ng Carrier DNA (Clontech # 630440) for each well). 4-6 hours after transfection, cells were treated with compounds for overnight in the medium with final concentration of FBS 1.1% and DMSO 0.1%. After overnight (16 to 20 hours) incubation, media were removed and cells were lysed with 20 µL 1x Passive Lysis Buffer (Promega) for 10-15 minutes. Luminescence was measured using a BMG LUMIstar OPTIMA plate reader, after addition of 75 µL/well firefly luciferase buffer, followed by 75 µL/well Renilla luciferase buffer. To calculate the effect of compounds on RORγt activity, firefly values were normalized against values of DMSO only and values of reference compound at saturating concentration, then further normalized against Renilla signals. IC50s were generated by plotting final Renilla normalized data against compound concentration and percent inhibition was calculated against DMSO control.
"inhibition at 2 µM (HEK-293T, 2 µM compound, read-out: RORγt (FL) Reporter Assay, % inhibition @ 2 µM) [%]",pIC50,"inhibition at 0.67 µM (HEK-293T, 0.67 µM compound concentration (footnote *), read-out: RORγt (FL) Reporter Assay, % inhibition (values marked *)) [%]",Compound
96,7.24,–,"COc1nc2ccc(C(O)c3cnc(C)n3C)cc2c(Cl)c1Cc1ccc(C(F)(F)F)cc1 (single isomer, unassigned) [Example 15c, (4-Chloro-2-methoxy-3-(4-(trifluoromethyl)benzyl)quinolin-6-yl)(1,2-dimethyl-1H-imidazol-5-yl)methanol]"
–,7.04,85,"COc1nc2ccc(C(O)c3cnc(C)n3C)cc2c(Cl)c1Cc1ccc(C(F)(F)F)cc1 (single isomer, unassigned) [Example 15b, (4-Chloro-2-methoxy-3-(4-(trifluoromethyl)benzyl)quinolin-6-yl)(1,2-dimethyl-1H-imidazol-5-yl)methanol]"
